Test results published in the NIST ThermoML archive (doi:10.1016/j.tca.2009.07.008).
± gives the expanded uncertainty stated by the source.

What was measured:
[1] = 303.15 K; 101.33 kPa; Liquid; Capillary tube (Ostwald / Ubbelohde) method
[2] = mn = molality of the nth substance listed, in mol/kg; conditions: 303.15 K, 101 kPa, Liquid, Capillary tube (Ostwald / Ubbelohde) method

In the case of `C1COCCO1` [1,4-dioxane], the viscosity [1] is reported as 1.075 ± 0.0079 mPa·s.

With `CCCCN` [1-butanamine] the viscosity [1] was 0.4442 ± 0.0054 mPa·s.

In the case of `CCCCNCCCC` [dibutylamine], the viscosity [1] is reported as 0.7584 ± 0.0071 mPa·s.

In the case of `CCCNCCC` [dipropylamine], the viscosity [1] is reported as 0.5118 ± 0.0058 mPa·s.

Work on `CCCN` [propan-1-amine] yielded a viscosity [1] of 0.3527 ± 0.005 mPa·s.

Compound `C1CCOC1` [tetrahydrofuran] has a viscosity [1] of 0.326 ± 0.0047 mPa·s.

Compound `CCCCN(CCCC)CCCC` [tributylamine] has a viscosity [1] of 1.167 ± 0.0097 mPa·s.

With `CCCCN(CCCC)CCCC` [tributylamine] + C1COCCO1 the viscosity ([2]; m1 = 0.1229) was 1.062 ± 0.0078 mPa·s, the viscosity ([2]; m1 = 0.2173) was 1.05 ± 0.0078 mPa·s and the viscosity ([2]; m1 = 0.3227) was 1.033 ± 0.0077 mPa·s. It also gave a viscosity ([2]; m1 = 0.4476) of 1.023 ± 0.0077 mPa·s, a viscosity ([2]; m1 = 0.5768) of 1.008 ± 0.0076 mPa·s and a viscosity ([2]; m1 = 0.7655) of 0.9912 ± 0.0075 mPa·s. For the same compound, the viscosity ([2]; m1 = 0.8789) was 0.9804 ± 0.0075 mPa·s, the viscosity ([2]; m1 = 1.028) was 0.9659 ± 0.0074 mPa·s and the viscosity ([2]; m1 = 1.179) was 0.9569 ± 0.0074 mPa·s.

Compound `CCN(CC)CC` [triethylamine] has a viscosity [1] of 0.3296 ± 0.0049 mPa·s.

With `CCN(CC)CC` [triethylamine] + C1CCOC1 the viscosity ([2]; m1 = 0.1482) was 0.327 ± 0.0047 mPa·s, the viscosity ([2]; m1 = 0.3064) was 0.3293 ± 0.0047 mPa·s and the viscosity ([2]; m1 = 0.4546) was 0.3307 ± 0.0047 mPa·s. The viscosity ([2]; m1 = 0.588) was 0.3315 ± 0.0047 mPa·s, the viscosity ([2]; m1 = 0.7856) was 0.3361 ± 0.0047 mPa·s and the viscosity ([2]; m1 = 0.8993) was 0.3349 ± 0.0047 mPa·s. The viscosity ([2]; m1 = 1.056) was 0.3376 ± 0.0048 mPa·s, the viscosity ([2]; m1 = 1.24) was 0.3386 ± 0.0048 mPa·s and the viscosity ([2]; m1 = 1.418) was 0.341 ± 0.0048 mPa·s.

`CCN(CC)CC` [triethylamine] + C1COCCO1 gave a viscosity ([2]; m1 = 0.159) of 1.054 ± 0.0078 mPa·s, a viscosity ([2]; m1 = 0.2697) of 1.042 ± 0.0077 mPa·s and a viscosity ([2]; m1 = 0.4098) of 1.018 ± 0.0076 mPa·s. For the same compound, the viscosity ([2]; m1 = 0.5388) was 0.998 ± 0.0075 mPa·s, the viscosity ([2]; m1 = 0.6616) was 0.98 ± 0.0074 mPa·s and the viscosity ([2]; m1 = 0.8419) was 0.955 ± 0.0073 mPa·s. For the same compound, the viscosity ([2]; m1 = 0.9909) was 0.932 ± 0.0072 mPa·s, the viscosity ([2]; m1 = 1.135) was 0.914 ± 0.0071 mPa·s and the viscosity ([2]; m1 = 1.27) was 0.894 ± 0.0071 mPa·s.

With `CCCN(CCC)CCC` [tripropylamine] the viscosity [1] was 0.5977 ± 0.0062 mPa·s.

In the case of `CCCN(CCC)CCC` [tripropylamine] + C1CCOC1, the viscosity ([2]; m1 = 0.1317) is reported as 0.3305 ± 0.0047 mPa·s, the viscosity ([2]; m1 = 0.2429) is reported as 0.3364 ± 0.0047 mPa·s and the viscosity ([2]; m1 = 0.3465) is reported as 0.3397 ± 0.0047 mPa·s. For the same compound, the viscosity ([2]; m1 = 0.4545) was 0.3447 ± 0.0048 mPa·s, the viscosity ([2]; m1 = 0.5811) was 0.3523 ± 0.0048 mPa·s and the viscosity ([2]; m1 = 0.6842) was 0.3577 ± 0.0048 mPa·s. For the same compound, the viscosity ([2]; m1 = 0.8378) was 0.3607 ± 0.0048 mPa·s, the viscosity ([2]; m1 = 0.9371) was 0.3681 ± 0.0049 mPa·s and the viscosity ([2]; m1 = 1.114) was 0.3753 ± 0.0049 mPa·s.

For `CCCN(CCC)CCC` [tripropylamine] + C1COCCO1, the viscosity ([2]; m1 = 0.1093) was 1.06 ± 0.0078 mPa·s, the viscosity ([2]; m1 = 0.2293) was 1.045 ± 0.0077 mPa·s and the viscosity ([2]; m1 = 0.3509) was 1.032 ± 0.0077 mPa·s. The viscosity ([2]; m1 = 0.4408) was 1.022 ± 0.0076 mPa·s, the viscosity ([2]; m1 = 0.5919) was 1.007 ± 0.0076 mPa·s and the viscosity ([2]; m1 = 0.7147) was 0.9934 ± 0.0075 mPa·s. It also gave a viscosity ([2]; m1 = 0.8383) of 0.9807 ± 0.0075 mPa·s, a viscosity ([2]; m1 = 0.9836) of 0.9694 ± 0.0074 mPa·s and a viscosity ([2]; m1 = 1.151) of 0.9571 ± 0.0074 mPa·s.
